Experimental findings from patent US20170159112A1, “AMPLIFIED ISOTHERMAL DETECTION OF POLYNUCLEOTIDES WITH ATP RELEASE” (priority 2015, published 2017) are described below.

Assay [1] concerns the target T1, Klenow fragment exo− polymerase (Escherichia coli, UniProt P00582, D355A/E357A).
T1 construct: Klenow fragment of DNA polymerase I 3′-exonuclease deficient variant, Kf exo^−; purchased New England BioLabs
The class given is biochemical, E. coli. As to conditions: Kf exo−; for Km / kcat: 37° C., single nucleotide incorporation, mean ± SD of three. From the text: Next we performed experiments to quantify the efficiency of ARNs as DNA polymerase substrates. We used published analytical high-resolution gel-based methods to evaluate steady state kinetics of the four nucleotides as substrates during single nucleotide incorporation experiments, with Kf exo^−. We performed similar measurements with the natural dNTPs for comparison.
Steady-State DNA Polymerase Efficiency with Chimeric ATP-Releasing Nucleotides, with Kf Exo^−.
Steady-state kinetics measurements. Steady-state kinetics assays were performed following previously published procedures (Swanson et al. Biochemistry 2011, 50, 7666-7673). The 13mer primer (SEQ ID NO:13, 5′-[…]-3′) was end labeled with T4 polynucleotide kinase and [γ-^32P]-ATP following the manufacturer's protocol. The 20mer template ODNs (SEQ ID NO:14, 5′-[…]-3′, N=A, T, C, G) were annealed with 5′-^32P-labeled 13mer primer as described above. The annealed primer-template duplex (0.05 μM) was incubated with Klenow fragment exo^− polymerase at 37° C. for 5 min in the presence of individual dNTPs or chimeric ATP-linked nucleotides at varied concentrations.
The parameters were adjusted to result in extents of reaction of 20% or less to maintain initial velocity conditions. The reaction was terminated with an equal volume of formamide gel loading buffer (95% formamide, 20 mM EDTA, 0.05% xylene cyanol and bromophenol blue). Extension products were separated on 20% denaturing polyacrylamide gels containing 8 M urea. Gel band intensities of the primer and its extension products were quantified using a Typhoon 9410 Variable Mode Imager. Quantitative imaging of bands was carried out using Image J software to determine the fraction of primer extension. The velocity was plotted as a function of dNTP (or ARN) concentration and fit with the Michaelis-Menten equation to obtain the kinetic parameters, Vmax and Km. Reactions were performed three times and the mean (±standard deviation) of Vmax and Km are reported. The kcat values were calculated by dividing the Vmax with the concentration of polmerase used. The efficiency of nucleotide incorporation was calculated by the ratio Kcat/Km.

Assay [2] addresses T2, Kf (exo-) polymerase (Escherichia coli, UniProt P00582, D355A/E357A).
T2 construct: Klenow fragment of DNA polymerase I 3′-exonuclease deficient variant, Kf exo^−; purchased New England BioLabs
The class given is biochemical, E. coli. The following applies: for signal on the T20 template sequence (misincorporation of adenosine ribonucleotide moiety): 20 μM ARN, (T)20 template, Kf polymerase. As for the experimental part:
polymerase. (A) Primer-template duplexes with (N)20 ends used in this study. (B) Luminescence signals resulting from the incorporation of ATP-linked nucleotides by Kf (exo.) polymerase. The Kf (exo.) polymerase reaction was carried out with 20 μM chimeric nucleotides and 1 μM corresponding primer template at 37° C. for 1 h. 5 μL of polymerase reaction solution were used for the luciferase reaction. […] (C) Kf (exo.) polymerase selectivity with chimeric nucleotides. The reaction was carried out using the (T)20 template and each of the four ARNs under the same reaction conditions as FIG. 2B.
FIG. 5. Selectivity of chimeric nucleotides with Kf (exo-) polymerase. Each of the four chimeric ARNs was supplied with the polymerase and the annealed primer-template duplex immediately upstream of the sequence T20 (A), C20 (B), A20 (C), and G20 (D), respectively. The polymerase reaction contained: 20 μM chimeric nucleotide, 1 μM corresponding primer/template and 1 μL Kf (exo-) polymerase in manufacturer's polymerase reaction buffer. After 1 h incubation at 37° C., 5 μL reaction solutions were added to 95 μL luciferase reaction solution. The bioluminescence signal was recorded at 1 min intervals over 1 h by microplate fluorimeter.
Our initial studies were directed at testing whether these modified nucleotides would be active as substrates for a DNA polymerase. We carried out experiments of primer extension on short synthetic primer/template duplexes (FIG. 2; 1 μM) in the presence of a standard polymerase (Klenow fragment of DNA polymerase I 3′-exonuclease deficient variant, Kf exo^−). We supplied one ARN at a time (20 μM) to its complementary template for one hour; if synthesis were successful it should generate up to ˜20 μM ATP as by-product of the reaction. We removed a small aliquot of the polymerase reaction and measured luminescence from this aliquot containing ATP in a commercial luciferase+luciferin reaction buffer over one hour (FIG. 2B). […] In this latter case we hypothesize the presence of intra- or inter-molecular G quadruplex structures that may inhibit the polymerase, possibly explaining the diminishment of ATP signal. In all four cases, signals were considerably (13-33-fold) higher than background in which primer/template DNA was omitted.
Next we tested sequence selectivity of the chimeric nucleotides, evaluating sixteen combinations of ARNs with the four DNA sequences (FIG. 2C and FIG. 5). In all cases, the correct nucleotide/target sequence combinations yielded much higher signals than incorrect combinations, showing clear nucleotide/template base selectivity. […]
Primer extension and luciferase signaling with short linear test templates. […] The bioluminescence signal was recorded by microplate fluorometer (Fluoroskan Ascent, Thermal). […]

T1 sequence (P00582 324-928 D355A/E357A): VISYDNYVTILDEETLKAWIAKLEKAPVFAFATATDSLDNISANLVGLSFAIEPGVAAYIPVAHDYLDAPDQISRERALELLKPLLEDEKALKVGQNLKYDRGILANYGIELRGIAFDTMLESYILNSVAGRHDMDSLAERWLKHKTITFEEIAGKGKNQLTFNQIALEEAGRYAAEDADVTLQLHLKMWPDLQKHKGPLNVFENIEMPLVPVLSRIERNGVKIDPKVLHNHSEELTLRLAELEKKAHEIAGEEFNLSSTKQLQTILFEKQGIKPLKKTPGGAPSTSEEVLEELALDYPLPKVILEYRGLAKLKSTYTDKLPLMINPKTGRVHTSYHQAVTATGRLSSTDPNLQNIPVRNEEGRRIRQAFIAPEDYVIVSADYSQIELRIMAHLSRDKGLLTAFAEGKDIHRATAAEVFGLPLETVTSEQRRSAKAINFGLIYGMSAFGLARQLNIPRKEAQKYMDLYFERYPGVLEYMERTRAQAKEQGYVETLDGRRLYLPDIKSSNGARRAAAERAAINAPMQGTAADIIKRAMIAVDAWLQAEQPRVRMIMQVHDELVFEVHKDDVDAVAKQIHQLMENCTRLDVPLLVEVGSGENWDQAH
T2 sequence (P00582 324-928 D355A/E357A): as above

Broadly, the Km is the concentration of substrate that gives half-maximal velocity. One may read the kcat as the number of substrate molecules converted per active site and unit of time at saturation. For `Nc1ccn([C@H]2C[C@H](O)[C@@H](COP(=O)(O)OP(=O)(O)OP(=O)(O)OP(=O)(O)OC[C@H]3O[C@@H](n4cnc5c(N)ncnc54)[C@H](O)[C@@H]3O)O2)c(=O)n1` [dCppppA, Deoxycytidine-5′-tetraphosphate-P4-5′-Adenosine], in assay [1], the Km stood at 3 ± 0.2 µM and the catalytic constant (kcat) was found to be 0.215 ± 0.0017 s⁻¹. The “signal on the T20 template sequence (misincorporation of adenosine ribonucleotide moiety)” value (“signal on the T20 template sequence” below) in assay [2] is “lack of enhanced signal”. Also, the “background signal in selectivity experiments” value in assay [2] (sixteen combinations of ARNs with four DNA sequences) is “main background signal”.

`Cc1cn([C@H]2C[C@H](O)[C@@H](COP(=O)(O)OP(=O)(O)OP(=O)(O)O)O2)c(=O)[nH]c1=O` [dTTP, reference compound]: in assay [1], the Km was determined as 0.24 ± 0.06 µM and the catalytic constant (kcat) stood at 0.145 ± 0.005 s⁻¹.

`Nc1ncnc2c1ncn2[C@H]1C[C@H](O)[C@@H](COP(=O)(O)OP(=O)(O)OP(=O)(O)O)O1` [dATP, reference compound]: in assay [1], the Km stood at 0.35 ± 0.05 µM and the kcat came out at 0.143 ± 0.005 s⁻¹.

For `Cc1cn([C@H]2C[C@H](O)[C@@H](COP(=O)(O)OP(=O)(O)OP(=O)(O)OP(=O)(O)OC[C@H]3O[C@@H](n4cnc5c(N)ncnc54)[C@H](O)[C@@H]3O)O2)c(=O)[nH]c1=O` [dTppppA, Thymidine-5′-tetraphosphate-P4-5′-Adenosine], in assay [1], the Michaelis-Menten constant (Km) was 2.2 ± 0.6 µM and the turnover number (kcat) is 0.0617 ± 0.0017 s⁻¹. In addition, in assay [2], the “signal on the T20 template sequence” value is listed as “lack of enhanced signal”.

With `Nc1ccn([C@H]2C[C@H](O)[C@@H](COP(=O)(O)OP(=O)(O)OP(=O)(O)O)O2)c(=O)n1` [dCTP, reference compound], in assay [1], the Michaelis constant (Km) stood at 0.07 ± 0.01 µM and the kcat stood at 0.233 ± 0.0067 s⁻¹.

For the compound `Nc1nc2c(ncn2[C@H]2C[C@H](O)[C@@H](COP(=O)(O)OP(=O)(O)OP(=O)(O)O)O2)c(=O)[nH]1` [dGTP, reference compound], in assay [1], the Km is 0.11 ± 0.01 µM and the kcat was 0.257 ± 0.0083 s⁻¹.

As to `Nc1ncnc2c1ncn2[C@@H]1O[C@H](COP(=O)(O)OP(=O)(O)OP(=O)(O)OP(=O)(O)OC[C@H]2O[C@@H](n3cnc4c(N)ncnc43)C[C@@H]2O)[C@@H](O)[C@H]1O` [dAppppA, Deoxyadenosine-5′-tetraphosphate-P4-5′-Adenosine], in assay [1], the “kcat/Km less than that of native congener dNTP” value is 5 fold, the Km is 1.3 ± 0.4 µM and the turnover number (kcat) was found to be 0.118 ± 0.0033 s⁻¹.

For the compound `Nc1nc2c(ncn2[C@H]2C[C@H](O)[C@@H](COP(=O)(O)OP(=O)(O)OP(=O)(O)OP(=O)(O)OC[C@H]3O[C@@H](n4cnc5c(N)ncnc54)[C@H](O)[C@@H]3O)O2)c(=O)[nH]1` [dGppppA, Deoxyguanosine-5′-tetraphosphate-P4-5′-Adenosine], in assay [1], the “kcat/Km less than that of native congener dNTP” value was 70 fold, the Km stood at 3.5 ± 0.4 µM and the kcat was found to be 0.118 ± 0.0083 s⁻¹. Besides, the “signal on the T20 template sequence” value in assay [2] is given as “lack of enhanced signal”.
